Tests used:
Human TASK-1 channels = Human TASK-1 channels (UniProt O35111); assay: Activity on the TASK-1 channel: two-microelectrode voltage clamp on Xenopus oocytes expressing TASK-1; assay type: cell-based; conditions: TASK-1 expressed in Xenopus oocytes, room temperature, Hill equation; read-out: mTask-1 IC-50
Human Kv1.5 channels = molecular target: T1, Human Kv1.5 channels (Homo sapiens, UniProt P22460); assay: Activity on the Kv1.5 channel: two-microelectrode voltage clamp on Xenopus oocytes expressing Kv1.5; assay type: cell-based; conditions: human Kv1.5 expressed in Xenopus oocytes, room temperature, Hill equation; read-out: Kv1.5 IC-50
T1 construct: expressed in transfected cells; host or cells: Xenopus laevis oocytes injected with RNA synthesized in vitro
T1 sequence (P22460 whole entry): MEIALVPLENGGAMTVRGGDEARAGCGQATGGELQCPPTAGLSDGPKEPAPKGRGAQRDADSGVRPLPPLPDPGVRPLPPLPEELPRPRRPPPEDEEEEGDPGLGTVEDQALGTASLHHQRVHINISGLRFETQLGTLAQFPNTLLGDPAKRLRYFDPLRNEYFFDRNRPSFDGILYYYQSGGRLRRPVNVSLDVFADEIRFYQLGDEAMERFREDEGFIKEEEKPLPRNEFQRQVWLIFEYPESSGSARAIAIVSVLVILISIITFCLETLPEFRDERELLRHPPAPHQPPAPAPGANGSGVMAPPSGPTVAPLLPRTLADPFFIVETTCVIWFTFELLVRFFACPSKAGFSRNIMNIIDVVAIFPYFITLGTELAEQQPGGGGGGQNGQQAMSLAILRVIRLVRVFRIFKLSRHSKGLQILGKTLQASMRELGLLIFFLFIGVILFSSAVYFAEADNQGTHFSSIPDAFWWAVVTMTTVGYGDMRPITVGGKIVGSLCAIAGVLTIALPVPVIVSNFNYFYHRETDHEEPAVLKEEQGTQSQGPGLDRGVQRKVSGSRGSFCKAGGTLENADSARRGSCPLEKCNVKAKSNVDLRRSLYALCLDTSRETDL
Protocol: Determination of the Activity on the Kv1.5 Channel
Human Kv1.5 channels were expressed in xenopus oocytes. For this purpose, firstly oocytes were isolated from Xenopus laevis and defolliculated. Kv1.5-encoding RNA synthesized in vitro was then injected into these oocytes. After Kv1.5 protein expression for 1-7 days, Kv1.5 currents were measured on the oocytes using the two-microelectrode voltage clamp technique. The Kv1.5 channels were in this case usually activated with voltage jumps lasting 500 ms to 0 mV and 40 mV. A solution of the following composition flowed through the bath: NaCl 96 mM, KCl 2 mM, CaCl2 1.8 mM, MgCl2 1 mM, HEPES 5 mM (titrated to pH 7.4 with NaOH). These experiments were carried out at room temperature. The following were employed for data acquisition and analysis: Geneclamp amplifier (Axon Instruments, Foster City, USA) and MacLab D/A converter and software (ADInstruments, Castle Hill, Australia). The substances of the invention were tested by adding them in various concentrations to the bath solution. The effects of the substances were calculated as percent inhibition of the Kv1.5 control current which was obtained when no substance was added to the solution. The data were then extrapolated using the Hill equation in order to determine the inhibitory concentrations IC50 for the respective substances.

## CO[C@H](c1ccc(Cl)cc1)[C@H](c1ccccc1)N1CCCC1=O (racemic) [Example 46]
Human TASK-1 channels
  IC50: 5.4 µM
Human Kv1.5 channels
  IC50: 1.5 µM
